From patent US20260125679A1, “FINE-TUNING INFLAMMATION BY ALTERING 3'UTR LENGTH” (priority 2023, published 2026)
Numbered stars: 1 amine (or outer) side, 2 acyl side, 3 side chain; on linkers, the order of the positions; unused ones are H or OH. Bridge positions count the residues as written; N and C are the ends. Square brackets hold non-standard residues; d marks the D form. Peptide text beside a SMILES is read from it. I, II: the chains in the order shown. Actinocin(9to1) = Cc1c2oc3c(C)ccc(C(=O)[*:1])c3nc-2c(C(=O)[*:2])c(N)c1=O; NMeV = CN[C@H](C(=O)O)C(C)C; Sar = CNCC(=O)O

What was measured:
[1] = test system: dsRNA in neurons, hESCs, HEK-293T and HeLa cells; assay: J2 staining of dsRNA after RNA polymerase inhibitor treatment; assay type: cell-based, human
Protocol: (§1) We transiently treated neurons with different RNA polymerase inhibitors for 12 hours prior to J2 staining to determine if RNA polymerase II (POLII) or mitochondrial RNA polymerase (POLRMT) give rise to neuronal dsRNA. The following inhibitors were used: actinomycin D (ActD), which inhibits both POLII and POLRMT (16); α-amanitin, a POLII inhibitor; and IMT1, a POLRMT-specific inhibitor (25). […] By quantifying depletion of dsRNA upon single treatments with α-amanitin or IMT1 treatment, we calculated the proportional contribution of POLII- or POLRMT-derived dsRNAs, respectively. We applied this analysis to various cell types. In HeLa cells, roughly 90% of dsRNA was derived from POLRMT. This is consistent with a prior study that concluded that roughly 95% of dsRNA in HeLa cells is located in mitochondria (16), validating our analysis. In both hESCs and HEK-293T cells, POLRMT and POLII contribute to roughly 70% and 30% of dsRNA, respectively. Conversely, in neurons, POLRMT and POLII transcripts contribute to 40% and 60% of dsRNA, respectively. […] In summary, mtRNA is the major component of dsRNA in HeLa, HEK-293T, and hESCs. However, in neurons, POLII-derived transcripts, presumably mRNAs, contribute to the bulk of the neuronal dsRNA load.
(§2) For treatment with various polymerase inhibitors, cells were treated for 12 hours prior to harvest with either ActD (10 ug/mL, Sigma), α-amanitin (25 ug/mL, Sigma), or IMT1 (1 uM, MedChemExpress).
Cells grown on glass coverslips were washed with PBS and fixed using 4% paraformaldehyde for 20 minutes at 4° C. Samples were then blocked and permeabilized in PBTG (PBS, 1% BSA, 0.1% Triton-X100, 10% goat serum) for 1 hour at room temperature. Primary antibodies were diluted in PBTG and stained overnight at 4° C. Secondary antibodies (either goat anti-mouse IgG Alexa Fluor 488 or goat anti-rabbit IgG Alexa Fluor 594, Invitrogen (A11001 and A11012)) and DAPI were diluted in PBTG and stained for 1 hour at room temperature prior to mounting. Samples were imaged on an LSM-710 confocal microscope.
Images were processed and analyzed using ImageJ. MFI of individual cells was determined by tracing cell outlines. MFI data depicts 12 individual cells taken from at least 3 independent images. For colocalization analysis, the JACop plugin was used to measure MFI of 4 independent images.

[2] = test system: neurons and hESCs; assay: Specificity of RNA polymerase inhibitors (mRNA and mtRNA levels); assay type: cell-based, human; conditions: 12 hours treatment
Protocol: as §1, §2
RNA was extracted directly from cell samples using the Direct-zol RNA Miniprep kit (Zymo Research). cDNA conversion was completed using the ProtoScript II First Strand cDNA Synthesis kit (New England Biolabs). PowerUp SYBR Green (Thermo Fisher Scientific) and QuantStudio 3 Real-Time PCR System were used for qRT-PCR, and all primers are listed in Table S1. RPS11 or 18S rRNA were used as a housekeeping gene for normalization.

Cc1c2oc3c(C)ccc(C(=O)N[C@@H]4C(=O)N[C@H](C(C)C)C(=O)N5CCC[C@H]5C(=O)N(C)CC(=O)N(C)[C@@H](C(C)C)C(=O)O[C@@H]4C)c3nc-2c(C(=O)N[C@@H]2C(=O)N[C@H](C(C)C)C(=O)N3CCC[C@H]3C(=O)N(C)CC(=O)N(C)[C@@H](C(C)C)C(=O)O[C@@H]2C)c(N)c1=O [ActD, actinomycin D] (I: T[dV]P[Sar][NMeV] / II: T[dV]P[Sar][NMeV]; ester I:1-I:C, II:1-II:C; linker I:N-II:N via Actinocin(9to1))
dsRNA signal (J2) ([1]; neurons and hESCs, 12 hours treatment): abrogate almost all dsRNA signal
mRNA levels [2]: down-regulated
mtRNA levels [2]: down-regulated

CC[C@H](C)[C@@H]1NC(=O)CNC(=O)[C@@H]2Cc3c([nH]c4cc(O)ccc34)[S+]([O-])C[C@@H](NC(=O)CNC1=O)C(=O)N[C@@H](CC(N)=O)C(=O)N1C[C@H](O)C[C@H]1C(=O)N[C@@H]([C@@H](C)[C@@H](O)CO)C(=O)N2 (stereo in doubt) [α-amanitin]
proportion of dsRNA derived from POLII (depletion of dsRNA upon α-amanitin) ([1]; hESCs and HEK-293T cells): ~30%
proportion of dsRNA derived from POLII (depletion of dsRNA upon α-amanitin) ([1]; neurons): 60%
mRNA levels [2]: down-regulated

Cc1ccccc1-c1cc(=O)oc2cc(OC(C)C(=O)N(C)C)ccc12 (stereo not shown) [IMT1]
proportion of dsRNA derived from POLRMT (depletion of dsRNA upon IMT1) ([1]; HeLa cells): roughly 90%
proportion of dsRNA derived from POLRMT (depletion of dsRNA upon IMT1) ([1]; hESCs and HEK-293T cells): roughly 70%
proportion of dsRNA derived from POLRMT (depletion of dsRNA upon IMT1) ([1]; neurons): 40%
mtRNA levels [2]: down-regulated
